Several values for one entry are separate records, joined by “and”; a condition that tells them apart may be missing. Equal values may be shown once.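 Tested at 5 concentrations; 48 h exposure; 96-well plates; endpoints linearly interpolated, else capped at highest concentration. The concentration for 50% growth inhibition is given as GI50. TGI: concentration producing complete growth inhibition.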
Columns and labels:
Assay in all cases: DTP human tumour cell line panel, 48 h
[1] = test system: BT-549 breast
[2] = test system: HOP-18 NSCLC
[3] = test system: DMS 114 small cell lung
[4] = test system: XF 498 CNS
[5] = test system: M19-MEL melanoma
[6] = test system: DLD-1 colon
[7] = test system: DMS 273 small cell lung
[8] = test system: LXFL 529 NSCLC

SMILES: C=C1CC[C@@H]2[C@](C)(COC(C)=O)[C@H](OC(C)=O)CC[C@@]2(C)[C@@H]1CC(Nc1ccc(S(=O)(=O)Nc2ncccn2)cc1)C1=CCOC1=O (some centres undefined)
- GI50 [1]: 1.64 µM
- TGI [1]: 3.39 µM

SMILES: CC(C)CCCC(=O)CCCCCCC(=O)CCN(O)C(=O)C(N)CO (centres undefined)
- TGI [1]: 34.5 µM

SMILES: Nc1nc(-c2cccc(Cl)c2)c(-c2ccc3ncccc3n2)s1
- GI50 [1]: > 25 µM
- TGI [1]: > 25 µM

SMILES: COc1ccc(C2SCC(=O)N2NC(=O)Nc2c(C)nc3ccccn23)cc1 (centres undefined)
- GI50 [1]: 24.2 µM
- TGI [1]: 65 µM

SMILES: O=C(/C(=C/c1cccc([N+](=O)[O-])c1)c1ccccc1)c1ccccc1
- GI50 [1]: 3.38 µM
- TGI [1]: 13.1 µM

SMILES: CCc1oc2ccccc2c1C(=O)c1cc(I)c(O)c(I)c1
- GI50 [1]: 2.79 µM
- TGI [1]: 13.9 µM

SMILES: CCC(=O)c1c(C(F)(F)F)n([O-])c2ccc(C)cc2[n+]1=O
- GI50 [1]: 1.35 µM
- TGI [1]: 5.43 µM

SMILES: COc1ccc(/C=C\c2cc(OC)c(OC)c(OC)c2)cc1OC(=O)NCCN(C)C
- TGI [2]: > 100 µM
- TGI [3]: < 0.0001 µM
- TGI [4]: < 0.0001 µM
- TGI [5]: 20.1 µM
- TGI [6]: 15.9 µM
- TGI [7]: 0.000109 µM

SMILES: CCCCN1CSC(=S)N(Cc2ccccc2)C1
- TGI [1]: > 100 µM

SMILES: CC1(C)N=C(N)N=C(N)N1c1ccc(OCc2ccc(S(=O)(=O)F)c(Cl)c2)c(Cl)c1
- GI50 [1]: 18.9 µM
- TGI [1]: > 100 µM

SMILES: Cn1cnc([N+](=O)[O-])c1[Se]c1nc(N)nc2c1ncn2C1OC(CO)C(O)C1O (centres undefined)
- TGI [1]: > 100 µM

SMILES: CC1=N/C(=C\c2cccc([N+](=O)[O-])c2)C(=O)O1
- TGI [2]: > 100 µM
- TGI [3]: > 100 µM
- TGI [8]: > 100 µM
- TGI [5]: > 100 µM
- TGI [6]: > 100 µM

SMILES: O=C1/C(=C/c2ccc(O)cc2)CSc2ccc(Cl)cc21
- GI50 [1]: 15.7 µM
- TGI [1]: 38.3 µM

SMILES: Cc1nc(-c2ccccc2)c(-c2ccccc2)s1
- TGI [1]: 67.1 µM

SMILES: COc1ccc(/C(Cl)=C(\C=O)c2ccc([N+](=O)[O-])cc2)cc1
- TGI [2]: > 100 µM
- TGI [3]: 68.5 µM
- TGI [4]: 40.4 µM
- TGI [8]: > 27.6 µM
- TGI [6]: 63.1 µM
- TGI [7]: 58.7 µM

SMILES: COc1cc2c(c(OC)c1OC)-c1c(cc3c(c1OC)OCO3)C1OC2C(C)C1C (centres undefined) (tested in a mixture with another compound)
- TGI [1]: > 100 µM

SMILES: CSc1nc2cc(S(=O)(=O)N3CCCCC3)ccc2s1
- TGI [1]: > 100 µM

SMILES: Cc1ccc2c(c1)CN(C(=O)CCC(=O)OCc1ccccc1)c1ccc(C)cc1CN2C(=O)CCC(=O)OCc1ccccc1
- TGI [2]: > 100 µM
- TGI [3]: > 100 µM
- TGI [8]: > 100 µM
- TGI [1]: > 100 µM
- TGI [5]: > 100 µM
- TGI [6]: > 100 µM
- TGI [7]: > 100 µM

SMILES: Cc1ccc(C(=O)Nc2ccc(CN3CCN(C)CC3)c(C(F)(F)F)c2)cc1C#Cc1cnc(N)c2ccccc12
- GI50 [1]: 1.93 µM
- TGI [1]: 8.71 µM

SMILES: Fc1ccc(-c2nn3ncccc3c2-c2ccnc(Nc3ccc4c(c3)OCCO4)n2)cc1
- GI50 [1]: 7.87 µM
- TGI [1]: 24.9 µM

SMILES: N.N.O=C([O-])P(=O)([O-])[O-].[Na+].[Pt+4]
- GI50 [2]: > 100 µM
- TGI [2]: > 100 µM
- GI50 [8]: > 100 µM
- TGI [8]: > 100 µM
- GI50 [6]: > 100 µM
- TGI [6]: > 100 µM
- GI50 [7]: > 100 µM
- TGI [7]: > 100 µM

SMILES: COC(=O)C12C3C4C1C1C2C3C41NC(=O)c1csc([C@@H](C[C@H](C(C)C)N(C)C(=O)[C@@H](NC(=O)[C@H]2CCCCN2C)C2CC2)OC(C)=O)n1 (some centres undefined)
- GI50 [1]: < 0.00333 µM
- TGI [1]: 4.1 µM

SMILES: COc1cc2c3c(n(CCNCCCNCCn4c5c(c6cc(OC)c(OC)cc6c4=O)C(=O)c4ccccc4-5)c(=O)c2cc1OC)-c1ccccc1C3=O
- GI50 [1]: 2.87 µM
- TGI [1]: > 100 µM

SMILES: CCc1ccc(Nc2ccc([N+](=O)[O-])cc2[N+](=O)[O-])cc1
- TGI [3]: > 100 µM
- TGI [4]: > 100 µM
- TGI [8]: > 100 µM
- TGI [5]: > 100 µM
- TGI [6]: > 100 µM
- TGI [7]: > 100 µM

SMILES: COc1cc2c3c(n(C)c(=O)c2cc1OC)-c1cc2c(cc1/C3=C\CNCCCN)OCO2
- GI50 [1]: 1.91 µM
- TGI [1]: 5.22 µM

SMILES: Nc1ncn(C2CC(O)C(CO)O2)c(=O)n1 (centres undefined)
- TGI [2]: > 260 µM
- TGI [3]: > 375 µM
- TGI [4]: > 80.8 µM
- TGI [1]: > 178 µM
- TGI [5]: > 375 µM
- TGI [6]: > 375 µM

SMILES: COc1ccc(CNc2nc3cc(C(F)(F)F)ccc3nc2C)cc1OC
- TGI [4]: > 100 µM
- TGI [8]: > 100 µM
- TGI [5]: > 100 µM
- TGI [6]: > 100 µM
- TGI [7]: 48.9 µM

SMILES: C=C[C@H]1C[C@@H]2C[C@@H]3[C@H]4C/C=C\C(=O)NCCCC5NC(=O)C(=C(O)/C=C/[C@@H]4CC(=O)[C@H]3[C@@H]2[C@H]1C)C5=O (some centres undefined)
- GI50 [1]: 0.158 µM
- TGI [1]: 0.322 µM

SMILES: COc1cc2c(c(OC)c1)C1(CC(CC#N)C2)SCCS1 (centres undefined)
- TGI [2]: > 100 µM
- TGI [3]: > 100 µM
- TGI [8]: > 100 µM
- TGI [5]: > 100 µM
- TGI [6]: > 100 µM
- TGI [7]: > 100 µM

SMILES: CS(=O)(=O)c1cc(=O)c2ccccc2s1
- TGI [3]: 11.2 µM
- TGI [4]: 4.4 µM
- TGI [8]: 3.02 µM
- TGI [1]: 35.6 µM
- TGI [5]: 18.3 µM
- TGI [6]: 4.21 µM
- TGI [7]: 20.7 µM

SMILES: COC1=CC2(C=CC1=O)c1cc(OC)c(OC)cc1CCN2C(=O)c1ccccc1 (centres undefined)
- TGI [2]: > 100 µM
- TGI [3]: > 100 µM
- TGI [8]: > 100 µM
- TGI [6]: > 100 µM
- TGI [7]: > 100 µM

SMILES: COC(C(O)c1ccc2c(c1)OCO2)P(=O)(c1ccccc1)c1ccccc1 (centres undefined)
- TGI [3]: > 100 µM
- TGI [4]: > 100 µM
- TGI [5]: > 100 µM
- TGI [6]: > 100 µM
- TGI [7]: > 100 µM

SMILES: COC(=O)[C@H](Cc1c[nH]c2ccccc12)NC(=O)[C@@H](OC)[C@@H]1Cc2cc3cc(OC4CC(OC5CC(O)C(O)C(C)O5)C(O)C(C)O4)c(C)c(O)c3c(O)c2C(=O)[C@H]1OC1CC(OC2CC(OC3CC(C)(O)C(O)C(C)O3)C(O)C(C)O2)C(O)C(C)O1 (some centres undefined)
- GI50 [1]: 0.00527 µM
- TGI [1]: 0.031 µM

SMILES: Cc1ccc(-c2cc(=O)c3cc(C)c(C)c(C(=O)O)c3o2)cc1C
- TGI [2]: > 100 µM
- TGI [3]: > 100 µM
- TGI [8]: > 100 µM
- TGI [5]: > 100 µM
- TGI [6]: > 100 µM
- TGI [7]: > 100 µM

SMILES: c1cc2c(ncc3cscc32)s1
- TGI [3]: > 100 µM
- TGI [4]: > 100 µM
- TGI [8]: > 100 µM
- TGI [5]: > 100 µM
- TGI [6]: > 100 µM
- TGI [7]: > 100 µM

SMILES: CCOC(=O)c1c(C)nc2c(c1N)/C(=C/c1ccc(OC)cc1)C(=O)N2Cc1ccc(F)cc1
- GI50 [1]: 0.169 µM
- TGI [1]: 0.365 µM

SMILES: NCCCn1c2c(c3ccc([N+](=O)[O-])cc3c1=O)C(=O)c1cc(Br)ccc1-2
- GI50 [1]: 0.0314 µM and 0.0491 µM
- TGI [1]: 0.893 µM

SMILES: Fc1ccc(C2SCc3nc4ccccc4n32)cc1Cl (centres undefined)
- TGI [3]: 57.4 µM
- TGI [4]: 31.7 µM
- TGI [8]: 57.8 µM
- TGI [5]: 37.1 µM
- TGI [6]: > 100 µM
